Reference: US10238638B2, “Benzothiazole and benzothiophene compounds” (Bristol-Myers Squibb Company, priority 2015, dated 2019)

What was measured:
PAR1 = PAR1 (Homo sapiens (Human), UniProt P25116); conditions: ACS patients, phase III; cited from earlier work
PAR4 = PAR4 (Homo sapiens (Human), UniProt Q96RI0); assay: FLIPR assay in PAR4-expressing HEK293 cells (calcium mobilization); assay type: cell-based; conditions: H-Ala-Phe(4-F)-Pro-Gly-Trp-Leu-Val-Lys-Asn-Gly-NH2-induced calcium mobilization, PAR4 antagonist activity
Description: The FLIPR assay is an exemplary in vitro assay for measuring the activity of the PAR4 antagonists of the present invention. In this assay, intracellular calcium mobilization is induced in PAR4 expressing cells by a PAR4 agonist and calcium mobilization is monitored.
HEK293 cells stably expressing PAR4 were generated by a standard method of transfection of human PAR4 (F2R23) cDNA expression vector and selected based on PAR4 protein expression or mRNA expression. […] Therefore, the same cells were also used to determine selectivity against PAR1 and agonist activity for both receptors.
FLIPR-based calcium mobilization assay in HEK293 cells was used to measure PAR4 antagonism, agonism, and selectivity against PAR1. […] Counter screens for agonist activity and PAR1 antagonist activity were also performed. Briefly, PAR1/PAR4-expressing HEK293 cells were grown in DMEM (Life Technology, Grand Island, N.Y.) containing 10% heat-inactivated FBS, 1% Penicillin-Streptomycin, 10 μg/mL blasticidin, and 100 μg/mL Zeocin at 37° C. with 5% CO2. Cells were plated overnight prior to the experiment in a black 384-well Purecoat Amine clear bottom plate (Becton Dickinson Biosciences, San Jose, Calif.) at 10,000 cells/well in 30 μL growth medium and incubated in a humidified chamber at 37° C. with 5% CO2 overnight. Prior to compound addition, the cell medium was replaced with 40 μL of 1× calcium and magnesium-containing Hank's Balanced Saline Solution (HBSS) (with 20 mM HEPES) and 1:1000 diluted fluorescent calcium indicator (Codex Biosolutions, Gaithersburg, Md.). After a 30 minute incubation period at 37° C. and a further 30 minute incubation and equilibration period at room temperature, 20 μL test compound (diluted in 1×HBSS buffer) was added at various concentrations at 0.17% dimethyl sulfoxide (DMSO) final concentration. Changes in fluorescence intensity were measured using a Functional Drug Screening System (FDSS, Hamamatsu, Japan) to determine agonist activities. The cells were then incubated for 30 minutes at room temperature followed by addition of 20 μL of agonist peptide for antagonist activity measurement. […] Compound potency was derived from 11-point concentration-response curves.

PAR1, sequence (P25116 22-425): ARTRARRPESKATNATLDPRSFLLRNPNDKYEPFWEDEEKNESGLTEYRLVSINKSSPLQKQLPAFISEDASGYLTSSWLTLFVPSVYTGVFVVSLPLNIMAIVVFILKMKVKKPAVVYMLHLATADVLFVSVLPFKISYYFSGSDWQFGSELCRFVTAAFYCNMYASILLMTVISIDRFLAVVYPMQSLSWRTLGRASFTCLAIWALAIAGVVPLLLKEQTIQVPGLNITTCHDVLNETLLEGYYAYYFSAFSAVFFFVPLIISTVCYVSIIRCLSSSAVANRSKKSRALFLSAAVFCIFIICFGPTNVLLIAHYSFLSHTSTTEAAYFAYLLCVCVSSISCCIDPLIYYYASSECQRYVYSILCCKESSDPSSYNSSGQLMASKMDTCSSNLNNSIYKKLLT
PAR4, sequence (Q96RI0 18-385): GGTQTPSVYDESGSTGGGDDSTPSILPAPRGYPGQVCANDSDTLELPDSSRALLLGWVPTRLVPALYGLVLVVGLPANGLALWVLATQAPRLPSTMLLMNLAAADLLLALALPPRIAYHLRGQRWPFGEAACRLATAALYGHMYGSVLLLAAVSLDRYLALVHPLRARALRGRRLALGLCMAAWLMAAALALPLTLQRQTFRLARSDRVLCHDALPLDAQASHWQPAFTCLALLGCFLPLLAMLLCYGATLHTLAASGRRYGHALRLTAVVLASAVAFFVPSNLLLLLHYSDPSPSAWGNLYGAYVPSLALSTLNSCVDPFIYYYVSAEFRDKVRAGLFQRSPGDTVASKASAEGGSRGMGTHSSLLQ

IC50 (PAR4) [µM]	SMILES	cardiovascular events (PAR1)	risk of major bleeding (PAR1)
–	CCOC(=O)N[C@@H]1CC[C@@H]2[C@@H](C1)C[C@H]1C(=O)O[C@H](C)[C@H]1[C@H]2/C=C/c1ccc(-c2cccc(F)c2)cn1 [vorapaxar]	did not significantly reduce	significantly increased
9.1	COc1cc(OCc2csc(-c3ccc(C(=O)N4CCC[C@H](O)C4)cc3)n2)c2sc(-c3cn4nc(C5CC5)sc4n3)nc2c1 [Example 26, (S)-(4-(4-(((2-(2-Cyclopropylimidazo[2,1-b][1,3,4]thiadiazol-6-yl)-5-methoxybenzo[d]thiazol-7-yl)oxy)methyl)thiazol-2-yl)phenyl)(3-hydroxypiperidin-1-yl)methanone]	–	–
15	COc1cc(OCc2csc(-c3ccc(C(=O)N4CCC[C@H](O)C4)cc3)n2)c2sc(-c3cn4nc(C(C)(F)F)sc4n3)nc2c1 [Example 16, (S)-(4-(4-(((2-(2-(1,1-Difluoroethyl)imidazo[2,1-b][1,3,4]thiadiazol-6-yl)-5-methoxybenzo[d]thiazol-7-yl)oxy)methyl)thiazol-2-yl)phenyl)(3-hydroxypiperidin-1-yl)methanone]	–	–
